Reference: publication PMC8147293, “Library of Selenocyanate and Diselenide Derivatives as In Vivo Antichagasic Compounds Targeting Trypanosoma cruzi Mitochondrion” (Pharmaceuticals, 2021)

How the values were obtained:
[1] = tested on: Trypanosoma cruzi bloodstream trypomastigotes (BTs); experiment: Screening against bloodstream trypomastigotes (resazurin); assay type: cell-based
Procedure: 2 × 10^6 Bloodstream trypomastigotes (BTs), obtained by cardiac puncture from infected BALB/c mice as previously described, were treated by adding the tested compounds at a concentration range from 50 to 0.1 µM in 96-well microplates (200 µL·well^−1) at 37 °C. After 24 h of treatment, resazurin sodium salt (Sigma-Aldrich) was added to be incubated for further 4 h. Finally, trypanocidal activity was determined following the same procedure as described to assess the trypanocidal activity in the epimastigotes. Each compound concentration was tested in triplicate in three independent experiments.

[2] = assay type: in vivo; details: BALB/c mice, 20 mg/kg per day for 5 days
Procedure: Finally, biochemical analyses were performed to assess the toxicity associated to the treatment of compound 8. Kidney, heart and liver biochemical markers were measured, including values from uninfected and BZN-treated mice (Table S2). […] The low toxicity allows compound 8 to be tested at higher doses, establishing an improved treatment schedule based on pharmacokinetics in order to reach a total parasite clearance.
(§1) All in vivo assays for the evaluation of compounds in the acute and chronic CD (Scheme 1)—monitoring of parasitemia, immunosuppression, PCR [59, 60], ELISA [56], and clinical analysis [56]—were performed as previously described. PCR was based on the Spliced Leader (SL) intergenic region sequence of T. cruzi (for detailed description, see literature reported previously).

Mammalian Vero cells = experiment: Cytotoxicity test on Vero cells (resazurin); assay type: cell-based; details: Chlorocebus sabaeus, 72 h; Table 1; Vero cells, 48 h + 24 h resazurin; read-out: Toxicity IC50 Vero Cell
Procedure: Mammalian Vero cells (EACC No. 84113001), cultured as previously reported, were used to determine the cytotoxicity of the tested compounds [56]. In short, 1.25 × 10^4 Vero cells·mL^−1 were treated by adding the compounds at a concentration range from 400 to 1 µM in 96-well microplates (200 µL·well^−1) at 37 °C for 48 h. Subsequently, resazurin sodium salt (Sigma-Aldrich) was added to be incubated for further 24 h. Finally, cell viability was determined following the same procedure as described to assess the trypanocidal activity in the epimastigotes. Each compound concentration was tested in triplicate in three independent experiments.

Trypanosoma cruzi [3] = experiment: Anti-T. cruzi IgG (ELISA) and splenomegaly in treated BALB/c mice; assay type: in vivo
Procedure: Otherwise, the immune status of the mice was evaluated—through the titer of total anti-T. cruzi IgG and the splenomegaly (Figure S1)—since it is a characteristic linked to the parasite load and the effectiveness ascribed to the potential candidates. […].
as §1
Figure S1. A) Anti-Trypanosoma cruzi immunoglobulin G levels, expressed in absorbance at 492 nm, at different days post-infection (dpi) for each group of mice treated during the acute and chronic phases of Chagas disease: control (untreated), benznidazole (BZN), 8, 10 and 15. Blank and uninfected mice are also […]
included. […] Values are the means of three mice ± standard deviation. (IS) immunosuppression. * Significant differences between untreated and treated mice for α =
0.05. B) Weight percentage of spleens in the chronic Chagas disease for each group of mice treated during the acute and chronic phases of the disease: control (untreated), benznidazole (BZN), 8, 10 and 15. Values are the means of three mice ± standard deviation. In brackets: reduction of splenomegaly in comparison to […]
(1 picture or pasted object on this page, not shown here)

Trypanosoma cruzi [4] = experiment: PCR of seven organs/tissues of treated BALB/c mice (Spliced Leader sequence); assay type: in vivo
Procedure: To assess the efficacy of potential candidates by confirming the absence of infection in the target locations, PCR was carried out at the end of the in vivo timeline (Figure 2C). PCR was positive in seven organs/tissues for the untreated (control) mice groups in both phases, showing the presence of the typical nested amastigotes of the chronic CD.
Infection was carried out by intraperitoneal inoculation of 5 × 10^5 BTs of T. cruzi per mouse in 0.2 mL PBS [56]. The mice were treated by oral route (~200 µL) once daily for 5 consecutive days. The treatment for mice treated in the acute and chronic phases began when the infection was confirmed (9th day post-infection (dpi)) and was established that the animals had entered the chronic phase (100th dpi), respectively.
The mice were divided into six groups (n = 3 per group): 0, negative control group (uninfected and untreated mice); I, positive control group (infected and untreated mice); II, BZN group (mice infected and treated with BZN); III, 8 group (mice infected and treated with 8); IV, 10 group (mice infected and treated with 10); V, 15 group (mice infected and treated with 15). The tested compounds and BZN were prepared at 2 mg·mL^−1 in an aqueous suspension vehicle containing 5% (v/v) DMSO and 0.5% (w/v) hydroxypropyl methylcellulose, as previously reported. Therefore, doses of 20 mg·kg^−1 per day were administered for 5 consecutive days, and vehicle only was administered in the negative and positive control groups.
as §1
Figure 2 (A) Parasitemia profiles of each group of mice infected with Trypanosoma cruzi and treated during the acute Chagas disease over a period of 55 days: control (untreated), benznidazole (BZN), 8, 10 and 15. Treatment days are represented in grey. […]. (B) Parasitemia reactivation by fresh blood in the chronic Chagas disease after the immunosuppression cycles for each group of mice treated during the acute and chronic phases of the disease: control (untreated), benznidazole (BZN), 8, 10, and 15. […]. (C) PCR analysis of seven organs/tissues with the Trypanosoma cruzi Spliced Leader (SL) intergenic region sequence in the chronic Chagas disease for each group of mice treated during the acute and chronic phases of the disease: (a) control (untreated), (b) benznidazole, (c) 8, (d) 10, and (e) 15.

[5] = biological target: T1, human erythrocytes CuZn-SOD (Homo sapiens, UniProt P00441); experiment: SOD enzymatic inhibition, CuZn-SOD; assay type: biochemical; details: 100 to 0.1 µM, read-out: CuZn-SOD IC50 (in brackets)
T1 construct: commercial Cu/Zn-SOD from human erythrocytes (Sigma-Aldrich); purchased Sigma-Aldrich; host or cells: human erythrocytes
Procedure: (§2) Excreted Fe-SOD protein—obtained and quantified as previously described [64]—and commercial Cu/Zn-SOD from human erythrocytes (Sigma-Aldrich) were exposed to the tested compounds at a concentration range from 100 to 0.1 µM to determine in vitro activities using the method previously described.

Trypanosoma cruzi Fe-SOD = experiment: SOD enzymatic inhibition, Fe-SOD; assay type: biochemical; details: at 100 µM
Procedure: as §2

T1 sequence (P00441 whole entry): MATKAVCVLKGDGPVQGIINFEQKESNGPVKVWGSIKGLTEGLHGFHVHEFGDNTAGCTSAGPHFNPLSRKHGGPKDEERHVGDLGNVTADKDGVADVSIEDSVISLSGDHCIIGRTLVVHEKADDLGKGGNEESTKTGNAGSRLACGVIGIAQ

SMILES: FC(F)(F)c1ccc(C[Se][Se]Cc2ccc(C(F)(F)F)cc2)cc1 [compound 8]
- Selectivity Index Trypomast. ([1]; IC50 Vero cells/IC50 trypomastigotes): 30
- IC50 ([1]; Trypanosoma cruzi, Table 1, bloodstream trypomastigotes, 24 h treatment + 4 h resazurin, read-out: Activity IC50 Trypomast.): 1.5 ± 0.3 µM
- death and body mass loss after treatment [2]: none of the mice died nor lost more than 10% body mass
- kidney, heart and liver biochemical markers [2]: disturbed 2 days after treatment
- CC50 (Mammalian Vero cells): 44.3 ± 2.7 µM
- IgG levels in the acute treatment (Trypanosoma cruzi [3]; from the beginning to the end of the in vivo timeline): very low IgG levels
- total anti-T. cruzi IgG levels and splenomegaly (Trypanosoma cruzi [3]; treated BALB/c mice versus untreated, excluding IgG levels of chronic CD): significant reduction
- negative PCR (parasite-free locations) (Trypanosoma cruzi [4]; mice treated in acute CD): 3/7
- negative PCR (parasite-free locations) (Trypanosoma cruzi [4]; mice treated in chronic CD): 4/7
- IC50 [5]: > 100 µM
- Fe-SOD inhibition (Trypanosoma cruzi Fe-SOD): 100%
